# Measured values taken from patent US6589957B2, “Compounds and methods of use for treatment of neurogenic inflammation” (Harbor Branch Oceanographic Institution, Inc., priority 1998, dated 2003).
# Test system: resiniferatoxin (RTX)-induced mouse ear edema
# Assay: Inhibition of resiniferatoxin-induced inflammation (edema) of the mouse ear
# Format: in vivo
# Conditions: 50 μg/ear topically in acetone together with RTX 0.1 μg/ear, 30-minute incubation, relative to control group edema
# Procedure: Inhibition of Resiniferatoxin-Induced Inflammation (Edema) of the Mouse Ear
# Induction of mouse ear edema can be conducted by known methods (Inoue, 1-f., N. Nagata, Y. Koshffiara [1993]). Compounds to be tested for anti-neurogenic inflammatory activity are topically applied in acetone to the ears of mice in a solution that includes the edema-causing irritant resiniferatoxin (RTX). RTX alone (0.1 μg/ear) or in combination with various dilutions of test compound are applied to both sides of the left ears (5 mice per treatment group) and acetone is applied to all right ears. After a 30-minute incubation, the mice are sacrificed, the ears removed, and bores taken and weighed. Edema is measured by subtracting the weight of the right ear (acetone control) from the weight of the left ear (treated). Results are recorded as % decrease (inhibition) or % increase (potentiation) in edema relative to the control group edema.
# Bis-heterocycle compounds of the subject invention, e.g., the bis-indole compounds, show significant anti-inflammatory properties.
row,Structure (SMILES),inhibition of RTX-induced edema
1,Nc1ncc(C(Cc2nc(C(=O)c3c[nH]c4cc(O)ccc34)[nH]c2-c2c[nH]c3cc(Br)ccc23)C(=O)O)[nH]1 (stereo not drawn) [topsentin d],approximately 96.9%
2,CC(c1cnc(N)[nH]1)c1nc(C(=O)c2c[nH]c3cc(O)ccc23)[nH]c1-c1c[nH]c2cc(Br)ccc12 (stereo not drawn) [topsentin e],approximately 88.4%
3,CC1c2[nH]c(N)nc2C2(O)CC1c1c(-c3cnc(-c4c[nH]c5cc(Br)ccc45)c(=O)[nH]3)c[nH]c1C2=O (stereo not drawn) [dragmacidin f],approximately 69.9%
